In US9957268B2, “1H-pyrrolo[2,3,c]pyridin-7(6H)-ones and pyrazolo[3,4-c]pyridin-7(6H)-ones as inhibitors of BET proteins” (Incyte Corporation, priority 2014, dated 2018) one finds IC50 data, which are given here for 25 compounds.

Structures are written as SMILES.

The target in assay [1] is BRD4-BD2 (Homo sapiens (Human), UniProt O60885). The assay is described as follows: BRD4 AlphaScreen assay (BRD4-BD2). The class given is binding. The following applies: biotin-labeled tetra-acetylated histone H4 peptide. The method, then:
(§1) BRD4-BD1 and BRD4-BD2 assays were conducted in white 384-well polystyrene plate in a final volume of 40 μL for BD1 and 60 μL for BD2. Inhibitors were first serially diluted in DMSO and added to the plate wells before the addition of other reaction components. The final concentration of DMSO in the assay was 1.25% (BD1) and 0.83% (BD2). The assays were carried out at room temperature in the assay buffer (50 mM Tris-HCl, pH 7.5, 0.01% Tween-20, 0.01% BSA, 5 mM DTT), containing 50 nM Biotin-labeled tetra-acetylated histone H4 peptide (H4Ac4) and BRD4-BD1 or BRD4-BD2 protein at concentration less than 1 nM. The incubation for 75 min. was followed by the addition of 20 μL of assay buffer supplemented with Streptavidin donor beads (PerkinElmer 6760002) and GSH Acceptor beads (PerkinElmer-AL109C) at final concentration 2-4 μg/mL under reduced light. After plate sealing, the plate was incubated in the dark at room temperature for 75 min. before reading on a PHERAstar FS plate reader (BMG Labtech). IC50 determination was performed by fitting the curve of percent control activity versus the log of the inhibitor concentration using the GraphPad Prism 5.0 software.
(In general: Alpha assays give light when donor and acceptor beads are brought close together.)

The target of assay [2] is BRD4-BD1 (Homo sapiens (Human), UniProt O60885). In words: BRD4 AlphaScreen assay (BRD4-BD1). The class given is binding. The following applies: biotin-labeled tetra-acetylated histone H4 peptide. The protocol: as §1

The term IC50 denotes the concentration at which inhibition is half-maximal. High values mean lower potency, low ones higher potency.

On to `CC(C)C1Oc2c(cc(S(C)(=O)=O)cc2-c2cn(C)c(=O)c3[nH]ccc23)NC1=O` (single isomer, unassigned) [Example 44A, 2-isopropyl-8-(6-methyl-7-oxo-6,7-dihydro-1H-pyrrolo[2,3-c]pyridin-4-yl)-6-(methylsulfonyl)-2H-1,4-benzoxazin-3(4H)-one], for which the IC50 in assay [1] and in assay [2] was ≤ 0.1 µM each time.

`CC(C)C1Oc2c(cc(S(C)(=O)=O)cc2-c2cn(C)c(=O)c3[nH]ccc23)NC1=O` (single isomer, unassigned) [Example 44B, 2-isopropyl-8-(6-methyl-7-oxo-6,7-dihydro-1H-pyrrolo[2,3-c]pyridin-4-yl)-6-(methylsulfonyl)-2H-1,4-benzoxazin-3(4H)-one]: the concentration for half-maximal inhibition (IC50) in assay [1] and in assay [2] was ≤ 0.1 µM in each case.

Turning to `CC(C)C1Oc2c(-c3cn(C)c(=O)c4[nH]ccc34)cc(S(C)(=O)=O)cc2N(C)C1=O` (single isomer, unassigned) [Example 47A, 2-isopropyl-4-methyl-8-(6-methyl-7-oxo-6,7-dihydro-1H-pyrrolo[2,3-c]pyridin-4-yl)-6-(methylsulfonyl)-2H-1,4-benzoxazin-3(4H)-one], the half-maximal inhibitory concentration (IC50) in assay [1] and in assay [2] was ≤ 0.1 µM throughout.

Consider `CC(C)C1Oc2c(-c3cn(C)c(=O)c4[nH]ccc34)cc(S(C)(=O)=O)cc2N(C)C1=O` (single isomer, unassigned) [Example 47B, 2-isopropyl-4-methyl-8-(6-methyl-7-oxo-6,7-dihydro-1H-pyrrolo[2,3-c]pyridin-4-yl)-6-(methylsulfonyl)-2H-1,4-benzoxazin-3(4H)-one], for which the 50% inhibitory concentration (IC50) in assay [1] and in assay [2] was ≤ 0.1 µM throughout.

Regarding `CC(O)c1cc(-c2cn(C)c(=O)c3[nH]ccc23)c2c(c1)N(C)C(=O)C(C)(C)O2` (single isomer, unassigned) [Example 83A, 6-(1-hydroxyethyl)-2,2,4-trimethyl-8-(6-methyl-7-oxo-6,7-dihydro-1H-pyrrolo[2,3-c]pyridin-4-yl)-2H-1,4-benzoxazin-3(4H)-one], the IC50 in assay [1] and in assay [2] was ≤ 0.1 µM throughout.

Consider `CC(O)c1cc(-c2cn(C)c(=O)c3[nH]ccc23)c2c(c1)N(C)C(=O)C(C)(C)O2` (single isomer, unassigned) [Example 83B, 6-(1-hydroxyethyl)-2,2,4-trimethyl-8-(6-methyl-7-oxo-6,7-dihydro-1H-pyrrolo[2,3-c]pyridin-4-yl)-2H-1,4-benzoxazin-3(4H)-one], for which the concentration for half-maximal inhibition (IC50) in assay [1] and in assay [2] was ≤ 0.1 µM throughout.

`Cn1cc(-c2cccc3c2OC(c2ccccc2)C(=O)N3)c2cc[nH]c2c1=O` (centres unmarked) [Example 1, 8-(6-methyl-7-oxo-6,7-dihydro-1H-pyrrolo[2,3-c]pyridin-4-yl)-2-phenyl-2H-1,4-benzoxazin-3(4H)-one]: the IC50 in assay [1] and in assay [2] was ≤ 0.1 µM throughout.

Regarding `CC(C)C1Oc2c(cccc2-c2cn(C)c(=O)c3[nH]ccc23)NC1=O` (centres unmarked) [Example 2, 2-isopropyl-8-(6-methyl-7-oxo-6,7-dihydro-1H-pyrrolo[2,3-c]pyridin-4-yl)-2H-1,4-benzoxazin-3(4H)-one], the 50% inhibitory concentration (IC50) in assay [1] and in assay [2] was ≤ 0.1 µM each time.

For the compound `CC1Oc2c(cccc2-c2cn(C)c(=O)c3[nH]ccc23)NC1=O` (centres unmarked) [Example 3, 2-methyl-8-(6-methyl-7-oxo-6,7-dihydro-1H-pyrrolo[2,3-c]pyridin-4-yl)-2H-1,4-benzoxazin-3(4H)-one], the IC50 in assay [1] was ≤ 0.1 µM; in assay [2], 0.1 to 1 µM.

Regarding `CCC1Oc2c(cccc2-c2cn(C)c(=O)c3[nH]ccc23)NC1=O` (centres unmarked) [Example 4, 2-ethyl-8-(6-methyl-7-oxo-6,7-dihydro-1H-pyrrolo[2,3-c]pyridin-4-yl)-2H-1,4-benzoxazin-3(4H)-one], the results for the half-maximal inhibitory concentration (IC50) in assay [1] and in assay [2] were ≤ 0.1 µM and 0.1 to 1 µM, respectively.

On to `Cn1cc(-c2cccc3c2OC(c2ccccn2)C(=O)N3)c2cc[nH]c2c1=O` (centres unmarked) [Example 5, 8-(6-methyl-7-oxo-6,7-dihydro-1H-pyrrolo[2,3-c]pyridin-4-yl)-2-pyridin-2-yl-2H-1,4-benzoxazin-3(4H)-one 2,2,2-trifluoroacetate], for which the IC50 was ≤ 0.1 µM in assay [1] and 0.1 to 1 µM in assay [2].

On to `Cn1cc(-c2cccc3c2OC(C2CC2)C(=O)N3)c2cc[nH]c2c1=O` (centres unmarked) [Example 6, 2-cyclopropyl-8-(6-methyl-7-oxo-6,7-dihydro-1H-pyrrolo[2,3-c]pyridin-4-yl)-2H-1,4-benzoxazin-3(4H)-one], for which the IC50 in assay [1] and in assay [2] was ≤ 0.1 µM each time.

Regarding `Cn1cc(-c2cccc3c2OC(C2CCOCC2)C(=O)N3)c2cc[nH]c2c1=O` (centres unmarked) [Example 7, 8-(6-methyl-7-oxo-6,7-dihydro-1H-pyrrolo[2,3-c]pyridin-4-yl)-2-(tetrahydro-2H-pyran-4-yl)-2H-1,4-benzoxazin-3(4H)-one], the IC50 in assay [1] and in assay [2] was ≤ 0.1 µM each time.

As for `CCC1Oc2c(-c3cn(C)c(=O)c4[nH]ccc34)cccc2N(C)C1=O` (centres unmarked) [Example 8, 2-ethyl-4-methyl-8-(6-methyl-7-oxo-6,7-dihydro-1H-pyrrolo[2,3-c]pyridin-4-yl)-2H-1,4-benzoxazin-3(4H)-one], the 50% inhibitory concentration (IC50) is ≤ 0.1 µM in assay [1] and 0.1 to 1 µM in assay [2].

Take `COc1cc(-c2cn(C)c(=O)c3[nH]ccc23)c2c(c1)N(C)C(=O)C(C(C)C)O2` (centres unmarked) [Example 10, 2-isopropyl-6-methoxy-4-methyl-8-(6-methyl-7-oxo-6,7-dihydro-1H-pyrrolo[2,3-c]pyridin-4-yl)-2H-1,4-benzoxazin-3(4H)-one]: the IC50 in assay [1] and in assay [2] was ≤ 0.1 µM each time.

`COc1cc(-c2cn(C)c(=O)c3[nH]ccc23)c2c(c1)N(CC(=O)O)C(=O)C(C(C)C)O2` (centres unmarked) [Example 11, [2-isopropyl-6-methoxy-8-(6-methyl-7-oxo-6,7-dihydro-1H-pyrrolo[2,3-c]pyridin-4-yl)-3-oxo-2,3-dihydro-4H-1,4-benzoxazin-4-yl]acetic acid]: the IC50 in assay [1] and in assay [2] was 0.1 to 1 µM in each case.

As for `CNC(=O)CN1C(=O)C(C(C)C)Oc2c(-c3cn(C)c(=O)c4[nH]ccc34)cc(OC)cc21` (centres unmarked) [Example 12, 2-[2-isopropyl-6-methoxy-8-(6-methyl-7-oxo-6,7-dihydro-1H-pyrrolo[2,3-c]pyridin-4-yl)-3-oxo-2,3-dihydro-4H-1,4-benzoxazin-4-yl]-N-methylacetamide], the IC50 in assay [1] was ≤ 0.1 µM; in assay [2] it was 0.1 to 1 µM.

With `COc1cc(-c2cn(C)c(=O)c3[nH]ccc23)c2c(c1)N(CC(=O)N1CCN(C)CC1)C(=O)C(C(C)C)O2` (centres unmarked) [Example 14, 2-isopropyl-6-methoxy-8-(6-methyl-7-oxo-6,7-dihydro-1H-pyrrolo[2,3-c]pyridin-4-yl)-4-[2-(4-methylpiperazin-1-yl)-2-oxoethyl]-2H-1,4-benzoxazin-3(4H)-one], the concentration for half-maximal inhibition (IC50) is ≤ 0.1 µM in assay [1] and 0.1 to 1 µM in assay [2].

As for `COc1cc(-c2cn(C)c(=O)c3[nH]ccc23)c2c(c1)N(Cc1ccncc1)C(=O)C(C(C)C)O2` (centres unmarked) [Example 15, 2-isopropyl-6-methoxy-8-(6-methyl-7-oxo-6,7-dihydro-1H-pyrrolo[2,3-c]pyridin-4-yl)-4-(pyridin-4-ylmethyl)-2H-1,4-benzoxazin-3(4H)-one], the IC50 in assay [1] and in assay [2] was ≤ 0.1 µM throughout.

As for `CC(C)C1Oc2c(cc(C#N)cc2-c2cn(C)c(=O)c3[nH]ccc23)NC1=O` (centres unmarked) [Example 17, 2-isopropyl-8-(6-methyl-7-oxo-6,7-dihydro-1H-pyrrolo[2,3-c]pyridin-4-yl)-3-oxo-3,4-dihydro-2H-1,4-benzoxazine-6-carbonitrile], the concentration for half-maximal inhibition (IC50) in assay [1] is ≤ 0.1 µM; in assay [2], 0.1 to 1 µM.

Turning to `CC(C)C1Oc2c(-c3cn(C)c(=O)c4[nH]ccc34)cc(C#N)cc2N(C)C1=O` (centres unmarked) [Example 18, 2-isopropyl-4-methyl-8-(6-methyl-7-oxo-6,7-dihydro-1H-pyrrolo[2,3-c]pyridin-4-yl)-3-oxo-3,4-dihydro-2H-1,4-benzoxazine-6-carbonitrile], the IC50 in assay [1] is ≤ 0.1 µM; in assay [2], 0.1 to 1 µM.

In the case of `CC(C)C1Oc2c(-c3cn(C)c(=O)c4[nH]ccc34)cc(C(N)=O)cc2N(C)C1=O` (centres unmarked) [Example 19, 2-isopropyl-4-methyl-8-(6-methyl-7-oxo-6,7-dihydro-1H-pyrrolo[2,3-c]pyridin-4-yl)-3-oxo-3,4-dihydro-2H-1,4-benzoxazine-6-carboxamide], the results for the concentration for half-maximal inhibition (IC50) in assay [1] and in assay [2] were ≤ 0.1 µM and 0.1 to 1 µM, respectively.

With `CNC(=O)c1cc2c(c(-c3cn(C)c(=O)c4[nH]ccc34)c1)OC(C(C)C)C(=O)N2` (centres unmarked) [Example 20, 2-isopropyl-N-methyl-8-(6-methyl-7-oxo-6,7-dihydro-1H-pyrrolo[2,3-c]pyridin-4-yl)-3-oxo-3,4-dihydro-2H-1,4-benzoxazine-6-carboxamide], the IC50 in assay [1] and in assay [2] was ≤ 0.1 µM throughout.

With `CC(C)C1Oc2c(cc([N+](=O)[O-])cc2-c2cn(C)c(=O)c3[nH]ccc23)NC1=O` (centres unmarked) [Example 21, 2-isopropyl-8-(6-methyl-7-oxo-6,7-dihydro-1H-pyrrolo[2,3-c]pyridin-4-yl)-6-nitro-2H-1,4-benzoxazin-3(4H)-one], the IC50 is ≤ 0.1 µM in assay [1] and 0.1 to 1 µM in assay [2].

Turning to `COc1cc(-c2cn(C)c(=O)c3[nH]ccc23)c2c(c1)N(C)CC(C(C)C)O2` (centres unmarked) [Example 22, 4-(2-isopropyl-6-methoxy-4-methyl-3,4-dihydro-2H-1,4-benzoxazin-8-yl)-6-methyl-1,6-dihydro-7H-pyrrolo[2,3-c]pyridin-7-one], the half-maximal inhibitory concentration (IC50) in assay [1] was ≤ 0.1 µM; in assay [2] it was 0.1 to 1 µM.
